Reference: patent US20120208809A1, “9H-PYRROLO[2,3-B: 5,4-C'] DIPYRIDINE AZACARBOLINE DERIVATIVES, PREPARATION THEREOF, AND THERAPEUTIC USE THEREOF” (SANOFI, priority 2009, published 2012)

Columns and labels:
CDK1 = CDK1 (Homo sapiens, UniProt P06493); experiment: Biochemical results, IC50 CDK1
PLK1 = PLK1 (Homo sapiens, UniProt P53350); experiment: Biochemical results, IC50 PLK1
Pim-3 = molecular target: T1, Pim-3 (Homo sapiens, UniProt Q86V86); experiment: TR-FRET assay of Pim kinase activity (phosphorylation of Bad Ser112), Pim-3; assay type: biochemical; details: ATP 40 μM, read-out: IC50 Pim3
T1 construct: full-length human recombinant His6-labelled Pim-1, Pim-2 or Pim-3 protein; His6; made in house
Method: (§1) In order to determine the inhibition of Pim kinase activity, the compounds of the invention are tested in accordance with a routinely-used in-vitro TR-FRET assay (“Time Resolved-Fluorescence Resonance Energy Transfer”). […] For the assay, the following reagents are used:
(§2) Pim kinase—full-length human recombinant His6-labelled Pim-1, Pim-2 or Pim-3 protein (prepared according to J. Mol. Biol. (2005) 348, 183-193); Bad—full-length human recombinant His6-labelled Bad protein (prepared according to J. Mol. Biol. (2005) 348, 183-193); α-His6-APC—mouse monoclonal antibody conjugated to allophycocyanine SureLight™ directed against the His6 label (Perkin-Elmer, No. AD0059H, Waltham, Mass., United States); α-P˜Bad-Eu—mouse monoclonal antibody (Cell Signaling Technology #9296B, Danvers, Mass., United States) directed against phosphoBad (Ser112) (7E11) labelled on request by Perkin-Elmer with the reagent LANCE™ Eu-W1024.
(§3) The assay is based on the LANCE™ technology from Perkin-Elmer: the Eu-labelled antibody binds to phospho-Ser112 and generates a TR-FRET signal by interaction with the […] antibody directed against His6, bound to the His6 label of Bad. The TR-FRET signal is detected using a SpectraMax M5 plate reader (Molecular Devices) with the following settings: λex=340 nm, λem1=615 nm, λem2=665 nm. The ratio of the fluorescence signal at 665 nm to the fluorescence signal at 615 nm is used as the signal reading for the IC50 (calculations based on the 4-parameter logistic model). The assay is performed in 384-well format; the liquid manipulations are performed using a Beckmann 3000 liquid manipulation station. The test compounds are tested at 10 concentration points in duplicate; the highest concentration of compound is typically equal to 30 μM. The ATP concentration is equal to 40 μM.

Pim-2 = molecular target: T2, Pim-2 (Homo sapiens, UniProt Q9P1W9); experiment: TR-FRET assay of Pim kinase activity (phosphorylation of Bad Ser112), Pim-2; assay type: biochemical; details: ATP 40 μM, read-out: IC50 Pim2
T2 construct: full-length human recombinant His6-labelled Pim-1, Pim-2 or Pim-3 protein; His6; made in house
T2 sequence (Q9P1W9 whole entry): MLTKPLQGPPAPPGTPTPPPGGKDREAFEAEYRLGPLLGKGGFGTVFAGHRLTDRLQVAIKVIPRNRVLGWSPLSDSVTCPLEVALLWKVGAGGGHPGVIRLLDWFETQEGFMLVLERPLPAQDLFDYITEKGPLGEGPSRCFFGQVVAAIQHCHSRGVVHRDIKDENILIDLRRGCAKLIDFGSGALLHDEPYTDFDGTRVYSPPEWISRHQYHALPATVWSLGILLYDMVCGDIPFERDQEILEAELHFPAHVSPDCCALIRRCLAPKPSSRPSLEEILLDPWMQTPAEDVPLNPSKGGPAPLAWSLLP
Method: as §1, §2, §3

Pim-1 = molecular target: T3, Pim-1 (Homo sapiens, UniProt P11309); experiment: TR-FRET assay of Pim kinase activity (phosphorylation of Bad Ser112), Pim-1; assay type: biochemical; details: ATP 40 μM, read-out: IC50 Pim1
T3 construct: full-length human recombinant His6-labelled Pim-1, Pim-2 or Pim-3 protein; His6; made in house
T3 sequence (P11309 whole entry): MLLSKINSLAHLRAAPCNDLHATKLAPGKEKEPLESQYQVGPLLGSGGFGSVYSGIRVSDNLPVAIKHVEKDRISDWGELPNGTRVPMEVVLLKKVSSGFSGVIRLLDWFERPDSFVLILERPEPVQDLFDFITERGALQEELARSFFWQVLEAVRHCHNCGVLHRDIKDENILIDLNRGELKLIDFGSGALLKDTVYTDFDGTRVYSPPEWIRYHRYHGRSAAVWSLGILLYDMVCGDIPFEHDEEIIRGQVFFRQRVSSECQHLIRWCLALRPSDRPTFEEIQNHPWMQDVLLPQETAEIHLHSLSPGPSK
Method: as §1, §2, §3

Chain of PLK1 (P53350 whole entry, species assumed): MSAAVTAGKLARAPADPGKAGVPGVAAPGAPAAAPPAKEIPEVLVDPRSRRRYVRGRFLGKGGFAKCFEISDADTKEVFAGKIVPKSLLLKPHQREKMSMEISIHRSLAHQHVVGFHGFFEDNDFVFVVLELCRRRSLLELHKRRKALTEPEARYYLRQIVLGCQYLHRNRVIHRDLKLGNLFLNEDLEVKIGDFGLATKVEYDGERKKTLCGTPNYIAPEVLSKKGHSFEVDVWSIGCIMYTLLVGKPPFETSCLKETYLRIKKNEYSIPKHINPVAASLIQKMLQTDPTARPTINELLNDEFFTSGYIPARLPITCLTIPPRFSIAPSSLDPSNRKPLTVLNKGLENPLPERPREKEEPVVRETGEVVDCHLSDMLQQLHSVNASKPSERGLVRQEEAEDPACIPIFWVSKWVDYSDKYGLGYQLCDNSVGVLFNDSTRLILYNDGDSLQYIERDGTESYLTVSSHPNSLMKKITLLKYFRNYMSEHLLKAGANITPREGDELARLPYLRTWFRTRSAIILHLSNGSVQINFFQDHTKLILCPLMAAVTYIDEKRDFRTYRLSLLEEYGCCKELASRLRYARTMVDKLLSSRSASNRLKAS
Chain of CDK1 (P06493 whole entry, species assumed): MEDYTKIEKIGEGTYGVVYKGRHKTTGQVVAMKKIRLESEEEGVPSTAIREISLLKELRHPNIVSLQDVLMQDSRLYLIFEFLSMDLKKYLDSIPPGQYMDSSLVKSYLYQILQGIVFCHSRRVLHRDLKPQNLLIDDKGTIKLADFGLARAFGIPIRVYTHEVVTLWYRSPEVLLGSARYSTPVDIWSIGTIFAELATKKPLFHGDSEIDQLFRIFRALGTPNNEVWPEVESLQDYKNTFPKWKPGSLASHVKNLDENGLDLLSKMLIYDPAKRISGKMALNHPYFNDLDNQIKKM
Chain of CDK1 (P14635 whole entry partner, species assumed): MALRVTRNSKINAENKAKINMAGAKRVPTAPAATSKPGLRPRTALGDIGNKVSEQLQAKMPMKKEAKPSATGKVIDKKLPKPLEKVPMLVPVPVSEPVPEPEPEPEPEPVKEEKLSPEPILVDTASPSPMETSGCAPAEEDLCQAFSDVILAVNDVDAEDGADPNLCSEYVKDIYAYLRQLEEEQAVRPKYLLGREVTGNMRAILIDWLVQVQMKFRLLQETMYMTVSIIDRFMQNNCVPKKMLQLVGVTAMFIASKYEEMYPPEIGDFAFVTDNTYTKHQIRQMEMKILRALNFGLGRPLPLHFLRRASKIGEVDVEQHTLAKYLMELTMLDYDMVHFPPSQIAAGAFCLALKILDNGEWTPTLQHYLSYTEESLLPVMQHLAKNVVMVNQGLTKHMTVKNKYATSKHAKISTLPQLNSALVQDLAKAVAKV

| SMILES | IC50 (CDK1) [nM] | IC50 (PLK1) [nM] | IC50 (Pim-3) [nM] | IC50 (Pim-2) [nM] | IC50 (Pim-1) [nM] |
| --- | --- | --- | --- | --- | --- |
| CC(C)(CNC(=O)c1ccc(-c2c(F)cnc3[nH]c4cnc(-c5cccnc5)cc4c23)cc1)N1CCCC1 [Example 58, 4-[3-fluoro-6-(pyridin-3-yl)-9H-pyrrolo[2,3-b:5,4-c′]dipyridin-4-yl]-N-[2-methyl-2-(pyrrolidin-1-yl)propyl]benzamide] | 1000 to 5000 | 100 to 1000 | < 100 | 100 to 1000 | < 100 |
| CN1CCCC1CCNC(=O)c1ccc(-c2c(F)cnc3[nH]c4cnc(-c5cccnc5)cc4c23)cc1 (stereo not shown) [Example 65, 4-[3-fluoro-6-(pyridin-3-yl)-9H-pyrrolo[2,3-b:5,4-c′]dipyridin-4-yl]-N-[2-(1-methylpyrrolidin-2-yl)ethyl]benzamide] | 1000 to 5000 | 100 to 1000 | < 100 | 100 to 1000 | < 100 |
| CCN(CCN(C)C)C(=O)c1ccc(-c2c(F)cnc3[nH]c4cnc(-c5cccnc5)cc4c23)cc1 [Example 67, N-[2-(dimethylamino)ethyl]-N-ethyl-4-[3-fluoro-6-(pyridin-3-yl)-9H-pyrrolo[2,3-b:5,4-c′]dipyridin-4-yl]benzamide] | 1000 to 5000 | 100 to 1000 | < 100 | < 100 | < 100 |
| CN1CCC(N(C)C(=O)c2ccc(-c3c(F)cnc4[nH]c5cnc(-c6cccnc6)cc5c34)cc2)C1 (stereo not shown) [Example 70, 4-[3-fluoro-6-(pyridin-3-yl)-9H-pyrrolo[2,3-b:5,4-c′]dipyridin-4-yl]-N-methyl-N-(1-methylpyrrolidin-3-yl)benzamide] | 1000 to 5000 | 1000 to 5000 | 100 to 1000 | 1000 to 5000 | < 100 |
| CCN(CC)CCN(C)C(=O)c1ccc(-c2c(F)cnc3[nH]c4cnc(-c5cccnc5)cc4c23)cc1 [Example 71, N-[2-(diethylamino)ethyl]-4-[3-fluoro-6-(pyridin-3-yl)-9H-pyrrolo[2,3-b:5,4-c′]dipyridin-4-yl]-N-methylbenzamide] | 1000 to 5000 | 1000 to 5000 | < 100 | 1000 to 5000 | < 100 |
| COCCN1CCN(C(=O)c2ccc(-c3c(F)cnc4[nH]c5cnc(-c6cccnc6)cc5c34)cc2)CC1 [Example 72, {4-[3-fluoro-6-(pyridin-3-yl)-9H-pyrrolo[2,3-b:5,4-c′]dipyridin-4-yl]phenyl}[4-(2-methoxyethyl)piperazin-1-yl]methanone] | 1000 to 5000 | 100 to 1000 | 100 to 1000 | > 5000 | 100 to 1000 |
| Cc1n[nH]cc1CNC(=O)c1ccc(-c2c(F)cnc3[nH]c4cnc(-c5cccnc5)cc4c23)cc1 [Example 73, 4-[3-fluoro-6-(pyridin-3-yl)-9H-pyrrolo[2,3-b:5,4-c′]dipyridin-4-yl]-N-[(3-methyl-1H-pyrazol-4-yl)methyl]benzamide] | 100 to 1000 | < 100 | < 100 | 100 to 1000 | < 100 |
| CN1CC2CCN(C(=O)c3ccc(-c4c(F)cnc5[nH]c6cnc(-c7cccnc7)cc6c45)cc3)CC2C1 (stereo not shown) [Example 74, {4-[3-fluoro-6-(pyridin-3-yl)-9H-pyrrolo[2,3-b:5,4-c′]dipyridin-4-yl]phenyl}(2-methyloctahydro-5H-pyrrolo[3,4-c]pyridin-5-yl)methanone] | 1000 to 5000 | 100 to 1000 | < 100 | 100 to 1000 | < 100 |
| O=C(NCc1ncc[nH]1)c1ccc(-c2c(F)cnc3[nH]c4cnc(-c5cccnc5)cc4c23)cc1 [Example 76, 4-[3-fluoro-6-(pyridin-3-yl)-9H-pyrrolo[2,3-b:5,4-c′]dipyridin-4-yl]-N-(1H-imidazol-2-ylmethyl)benzamide] | 100 to 1000 | < 100 | < 100 | 100 to 1000 | < 100 |
| CN1CCC2(CCN(C(=O)c3ccc(-c4c(F)cnc5[nH]c6cnc(-c7cccnc7)cc6c45)cc3)C2)C1 (stereo not shown) [Example 77, {4-[3-fluoro-6-(pyridin-3-yl)-9H-pyrrolo[2,3-b:5,4-c′]dipyridin-4-yl]phenyl}(7-methyl-2,7-diazaspiro[4.4]non-2-yl)methanone] | 1000 to 5000 | 1000 to 5000 | < 100 | 1000 to 5000 | < 100 |
| O=C(NCCNc1ccccn1)c1ccc(-c2c(F)cnc3[nH]c4cnc(-c5cccnc5)cc4c23)cc1 [Example 78, 4-[3-fluoro-6-(pyridin-3-yl)-9H-pyrrolo[2,3-b:5,4-c′]dipyridin-4-yl]-N-[2-(pyridin-2-ylamino)ethyl]benzamide] | 100 to 1000 | < 100 | < 100 | 100 to 1000 | < 100 |
| CCN(CC1CCN(C)C1)C(=O)c1ccc(-c2c(F)cnc3[nH]c4cnc(-c5cccnc5)cc4c23)cc1 (stereo not shown) [Example 79, N-ethyl-4-[3-fluoro-6-(pyridin-3-yl)-9H-pyrrolo[2,3-b:5,4-c′]dipyridin-4-yl]-N-[(1-methylpyrrolidin-3-yl)methyl]benzamide] | 1000 to 5000 | 100 to 1000 | < 100 | 100 to 1000 | < 100 |
| O=C(c1ccc(-c2c(F)cnc3[nH]c4cnc(-c5cccnc5)cc4c23)cc1)N1CCC(N2CCCC2)C1 (stereo not shown) [Example 80, 1.3′-bipyrrolidin-1′-yl{4-[3-fluoro-6-(pyridin-3-yl)-9H-pyrrolo[2,3-b:5,4-c′]dipyridin-4-yl]phenyl}methanone] | 100 to 1000 | 100 to 1000 | < 100 | 100 to 1000 | < 100 |
| CN1CCC(N(C)C(=O)c2ccc(-c3c(F)cnc4[nH]c5cnc(-c6cccnc6)cc5c34)cc2)CC1 [Example 81, 4-[3-fluoro-6-(pyridin-3-yl)-9H-pyrrolo[2,3-b:5,4-c′]dipyridin-4-yl]-N-methyl-N-(1-methylpiperidin-4-yl)benzamide] | 1000 to 5000 | 100 to 1000 | < 100 | 1000 to 5000 | < 100 |

The next lines start with the values.

| IC50 (CDK1) [nM] | IC50 (PLK1) [nM] | IC50 (Pim-3) [nM] | IC50 (Pim-2) [nM] | IC50 (Pim-1) [nM] | SMILES |
| --- | --- | --- | --- | --- | --- |
| 100 to 1000 | 100 to 1000 | < 100 | 100 to 1000 | < 100 | CCN1CCCC(NC(=O)c2ccc(-c3c(F)cnc4[nH]c5cnc(-c6cccnc6)cc5c34)cc2)C1 (stereo not shown) [Example 54, N-(1-ethylpiperidin-3-yl)-4-[3-fluoro-6-(pyridin-3-yl)-9H-pyrrolo[2,3-b:5,4-c′]dipyridin-4-yl]benzamide] |
| 100 to 1000 | 100 to 1000 | < 100 | 100 to 1000 | < 100 | CC1CCCCN1CCNC(=O)c1ccc(-c2c(F)cnc3[nH]c4cnc(-c5cccnc5)cc4c23)cc1 (stereo not shown) [Example 55, 4-[3-fluoro-6-(pyridin-3-yl)-9H-pyrrolo[2,3-b:5,4-c′]dipyridin-4-yl]-N-[2-(2-methylpiperidin-1-yl)ethyl]benzamide] |
| 100 to 1000 | 100 to 1000 | < 100 | 1000 to 5000 | < 100 | CN(C)C1CCCN(C(=O)c2ccc(-c3c(F)cnc4[nH]c5cnc(-c6cccnc6)cc5c34)cc2)C1 (stereo not shown) [Example 57, [3-(dimethylamino)piperidin-1-yl]{4-[3-fluoro-6-(pyridin-3-yl)-9H-pyrrolo[2,3-b:5,4-c′]dipyridin-4-yl]phenyl}methanone] |
| 100 to 1000 | 100 to 1000 | < 100 | 100 to 1000 | < 100 | O=C(NCCN1CCCCCC1)c1ccc(-c2c(F)cnc3[nH]c4cnc(-c5cccnc5)cc4c23)cc1 [Example 60, N-[2-(azepan-1-yl)ethyl]-4-[3-fluoro-6-(pyridin-3-yl)-9H-pyrrolo[2,3-b:5,4-c′]dipyridin-4-yl]benzamide] |
| 100 to 1000 | 100 to 1000 | < 100 | 1000 to 5000 | < 100 | CS(=O)(=O)NCCNC(=O)c1ccc(-c2c(F)cnc3[nH]c4cnc(-c5cccnc5)cc4c23)cc1 [Example 62, 4-[3-fluoro-6-(pyridin-3-yl)-9H-pyrrolo[2,3-b:5,4-c′]dipyridin-4-yl]-N-{2-[(methylsulfonyl)amino]ethyl}benzamide] |
| 100 to 1000 | 100 to 1000 | < 100 | 100 to 1000 | < 100 | CN(C)[C@H]1CCN(C(=O)c2ccc(-c3c(F)cnc4[nH]c5cnc(-c6cccnc6)cc5c34)cc2)C1 [Example 69, [(3S)-3-(dimethylamino)pyrrolidin-1-yl]{4-[3-fluoro-6-(pyridin-3-yl)-9H-pyrrolo[2,3-b:5,4-c′]dipyridin-4-yl]phenyl}methanone] |
